We go through 14 molecules from US9670231B2, “Fused tricyclic amide compounds as multiple kinase inhibitors” (BEIGENE, LTD., priority 2013, dated 2017).

Like-named read-outs stand apart in the source and are kept apart here.

Common to all, as to format: biochemical
One experiment concerns the target wild type B-Raf (Homo sapiens (Human), UniProt P15056). Description: WT BRaf IC50 assay, TR-FRET. As to the method: WT BRaf IC50 Assay Protocol
Compounds disclosed herein were tested against wild type B-Raf (PV3848, from Invitrogen) in a time-resolved fluorescence energy transfer assay. […] The enzyme was incubated with the compounds disclosed herein at room temperature for 120 minutes and the reactions were initiated by the addition of ATP and GST-MEK1. After incubating at room temperature for 60 minutes, an equal volume of stop buffer containing 25 mM Tris pH7.4, 400 mM KF, 50 mM EDTA, 0.1% BSA, 0.01% Triton X-100, 1 test of Eu3+Cryptate-conjugated rabbit polyclonal antibody anti-Phospho MEK1/2 (Ser217/221) and 1 test of d2-conjugated mouse monoclonal antibody anti-glutathione S-transferase was added to stop the reactions. Plates were sealed and incubated at room temperature for 1.5 hours, and then the TR-FRET signals were read on BMG PHERAstar FS instrument. The IC50 for each compound was calculated by non linear regression by Graphpad Prism software.

For a further experiment, the target named is WT EGFR kinase domain (Homo sapiens (Human), UniProt P00533). Nature of the experiment: EGFR enzymatic assay, TR-FRET, WT EGFR. On the technique in general: In TR-FRET formats the signal depends on donor and acceptor labels being close together.
Another experiment concerns the target EGFR L858R kinase domain (Homo sapiens (Human), UniProt P00533, L858R). Description: EGFR enzymatic assay, TR-FRET, EGFR L858R.
The target in experiment [1] is EGFR T790M/L858R kinase domain (Homo sapiens (Human), UniProt P00533, L858R/T790M). Nature of the experiment: EGFR enzymatic assay, TR-FRET, EGFR T790M/L858R.
The next experiment addresses B-Raf (V600E) (Homo sapiens (Human), UniProt P15056, V600E). Nature of the experiment: Raf IC50 assay, TR-FRET, B-Raf (V600E). The settings on record: 0.1 mM ATP; read-out: IC50 BRAF-V600E.
Another experiment concerns the target C-Raf (Y340D/Y341D) (Homo sapiens (Human), UniProt P04049, Y340D/Y341D). Nature of the experiment: Raf IC50 assay, TR-FRET, C-Raf (Y340D/Y341D). The settings on record: 0.1 mM ATP. As to the method: Compounds disclosed herein were tested against B-Raf (V600E) (PV3849, from Invitrogen) or C-Raf (Y340D/Y341D) (PV3805, from Invitrogen) in a time-resolved fluorescence energy transfer assay. The assay was carried out in reactions (10 μL) containing 0.0625 nM B-Raf or 0.5 nM C-Raf, 25 mM Tris pH7.4, 10 mM MgCl2, 0.5 mM EGTA, 0.5 mM Na3VO4, 5 mM beta-glycerophosphate, 0.01% Triton X-100, 2.5 mM DTT, 0.1% BSA, 0.1 mM ATP, 13.7 nM GST-tagged MEK1 (Full-length protein with K97R mutation, recombinant protein purified from bacterial expression system) and 0-5 μM compounds disclosed herein (final concentration of 1% DMSO). The enzyme was incubated with the compounds disclosed herein at room temperature for 60 minutes and the reactions were initiated by the addition of ATP and GST-MEK1. After reaction at room temperature for 60 minutes, an equal volume of stop/detection solution was added according to the manufacture's instruction (CisBio Bioassays). The stop/detection solution contained Eu^3+ cryptate-conjugated anti-phospho MEK1/2 (Ser217/221) rabbit polyclonal antibody and d2-conjugated anti-GST mouse monoclonal antibody in buffer containing 25 mM Tris pH7.4, 400 mM KF, 50 mM EDTA, 0.01% BSA and 0.01% Triton X-100. Plates were sealed and incubated at room temperature for 2 hours, and the TR-FRET signals (ratio of fluorescence emission at 665 nm over emission at 620 nm with excitation at 337 nm wavelength) were recorded on a PHERAstar FS plate reader (BMG Labtech). Phosphorylation of MEK1 led to the binding of anti-phospho-MEK1/2 antibody to GST-MEK1 protein that place fluorescent donor (Eu^3+ crypate) in close proximity to the accepter d2 on the anti-GST antibody, thus resulting in a high degree of fluorescence resonance energy transfer from the donor fluorophore (at 620 nm) to the acceptor fluorophore (at 665 nm). […] The IC50 for each compound was derived from fitting the dose-response % inhibition data to the four-parameter logistic model by Graphpad Prism software.

Setting [2] is: Km ATP ([…] ATP), read-out: IC50 Braf-WT Km ATP.

As a reminder, the IC50 is the concentration that gives 50% inhibition.

EGFR L858R kinase domain, sequence (P00533 669-1210 L858R): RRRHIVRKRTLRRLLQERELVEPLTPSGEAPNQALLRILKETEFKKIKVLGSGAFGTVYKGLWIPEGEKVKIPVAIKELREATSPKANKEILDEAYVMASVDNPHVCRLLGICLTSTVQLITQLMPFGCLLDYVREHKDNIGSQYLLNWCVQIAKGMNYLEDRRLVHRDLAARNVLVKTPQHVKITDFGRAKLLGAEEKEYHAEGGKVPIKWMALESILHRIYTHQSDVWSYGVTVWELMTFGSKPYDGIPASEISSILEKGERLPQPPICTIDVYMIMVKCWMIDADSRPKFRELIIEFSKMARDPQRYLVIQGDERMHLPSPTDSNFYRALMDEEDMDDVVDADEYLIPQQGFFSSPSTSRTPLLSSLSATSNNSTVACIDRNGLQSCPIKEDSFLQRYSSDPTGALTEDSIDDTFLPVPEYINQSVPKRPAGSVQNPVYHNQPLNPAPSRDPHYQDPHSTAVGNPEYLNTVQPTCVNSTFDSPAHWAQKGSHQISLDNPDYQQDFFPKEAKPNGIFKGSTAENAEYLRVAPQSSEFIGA
wild type B-Raf, sequence (P15056 whole entry): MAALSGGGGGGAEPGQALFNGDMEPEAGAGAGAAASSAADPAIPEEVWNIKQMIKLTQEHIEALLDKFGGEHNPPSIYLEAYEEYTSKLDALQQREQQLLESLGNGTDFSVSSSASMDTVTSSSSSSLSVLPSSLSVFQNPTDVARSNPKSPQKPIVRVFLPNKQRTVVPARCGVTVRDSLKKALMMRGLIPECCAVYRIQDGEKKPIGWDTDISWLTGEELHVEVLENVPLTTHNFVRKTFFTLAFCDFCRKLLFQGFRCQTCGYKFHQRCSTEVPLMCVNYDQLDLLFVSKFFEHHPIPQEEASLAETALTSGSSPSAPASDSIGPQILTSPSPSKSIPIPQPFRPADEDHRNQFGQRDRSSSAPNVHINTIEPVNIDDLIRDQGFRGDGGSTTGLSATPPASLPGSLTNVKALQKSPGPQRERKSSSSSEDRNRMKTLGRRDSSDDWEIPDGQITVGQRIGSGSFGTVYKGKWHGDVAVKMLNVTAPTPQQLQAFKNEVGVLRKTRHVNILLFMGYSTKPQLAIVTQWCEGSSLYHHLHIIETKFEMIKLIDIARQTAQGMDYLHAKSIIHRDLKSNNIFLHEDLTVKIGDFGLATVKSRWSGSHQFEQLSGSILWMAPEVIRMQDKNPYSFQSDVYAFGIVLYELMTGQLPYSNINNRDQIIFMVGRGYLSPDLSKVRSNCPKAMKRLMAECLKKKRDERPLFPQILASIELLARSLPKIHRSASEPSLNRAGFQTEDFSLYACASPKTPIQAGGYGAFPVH
B-Raf (V600E), sequence (P15056 whole entry V600E): as the sequence (P15056 whole entry) above, with V600E counted along it
EGFR T790M/L858R kinase domain, sequence (P00533 669-1210 T790M/L858R): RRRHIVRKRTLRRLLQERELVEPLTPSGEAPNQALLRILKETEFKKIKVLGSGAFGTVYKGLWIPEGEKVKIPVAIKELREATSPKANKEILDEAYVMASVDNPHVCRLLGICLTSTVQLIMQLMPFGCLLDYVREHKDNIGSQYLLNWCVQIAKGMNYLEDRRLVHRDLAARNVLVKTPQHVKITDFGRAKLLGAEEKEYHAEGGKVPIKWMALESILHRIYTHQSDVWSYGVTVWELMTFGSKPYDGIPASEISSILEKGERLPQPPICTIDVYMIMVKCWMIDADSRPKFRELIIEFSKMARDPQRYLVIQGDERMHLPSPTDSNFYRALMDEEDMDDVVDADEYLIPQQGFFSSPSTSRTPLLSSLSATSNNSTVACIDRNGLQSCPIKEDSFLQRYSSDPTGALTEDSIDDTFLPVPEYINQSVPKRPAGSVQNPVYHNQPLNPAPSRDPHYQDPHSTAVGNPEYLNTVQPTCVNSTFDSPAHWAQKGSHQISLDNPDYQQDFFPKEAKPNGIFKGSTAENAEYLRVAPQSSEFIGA
WT EGFR kinase domain, sequence (P00533 669-1210): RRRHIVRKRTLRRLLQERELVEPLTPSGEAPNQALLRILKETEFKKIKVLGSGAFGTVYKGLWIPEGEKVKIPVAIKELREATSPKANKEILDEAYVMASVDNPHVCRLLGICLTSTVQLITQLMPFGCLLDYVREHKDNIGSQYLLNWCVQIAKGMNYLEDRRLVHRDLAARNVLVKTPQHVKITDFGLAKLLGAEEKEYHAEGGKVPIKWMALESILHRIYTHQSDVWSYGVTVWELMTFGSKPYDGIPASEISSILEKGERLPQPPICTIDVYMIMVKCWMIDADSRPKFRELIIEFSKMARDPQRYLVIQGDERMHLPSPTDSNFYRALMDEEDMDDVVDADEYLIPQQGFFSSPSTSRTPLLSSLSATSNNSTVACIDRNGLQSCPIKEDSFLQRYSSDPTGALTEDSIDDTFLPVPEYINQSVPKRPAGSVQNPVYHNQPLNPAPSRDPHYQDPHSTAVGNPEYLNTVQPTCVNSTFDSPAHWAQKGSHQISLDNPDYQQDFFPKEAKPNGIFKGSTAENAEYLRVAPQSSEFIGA
C-Raf (Y340D/Y341D), sequence (P04049 whole entry Y340D/Y341D): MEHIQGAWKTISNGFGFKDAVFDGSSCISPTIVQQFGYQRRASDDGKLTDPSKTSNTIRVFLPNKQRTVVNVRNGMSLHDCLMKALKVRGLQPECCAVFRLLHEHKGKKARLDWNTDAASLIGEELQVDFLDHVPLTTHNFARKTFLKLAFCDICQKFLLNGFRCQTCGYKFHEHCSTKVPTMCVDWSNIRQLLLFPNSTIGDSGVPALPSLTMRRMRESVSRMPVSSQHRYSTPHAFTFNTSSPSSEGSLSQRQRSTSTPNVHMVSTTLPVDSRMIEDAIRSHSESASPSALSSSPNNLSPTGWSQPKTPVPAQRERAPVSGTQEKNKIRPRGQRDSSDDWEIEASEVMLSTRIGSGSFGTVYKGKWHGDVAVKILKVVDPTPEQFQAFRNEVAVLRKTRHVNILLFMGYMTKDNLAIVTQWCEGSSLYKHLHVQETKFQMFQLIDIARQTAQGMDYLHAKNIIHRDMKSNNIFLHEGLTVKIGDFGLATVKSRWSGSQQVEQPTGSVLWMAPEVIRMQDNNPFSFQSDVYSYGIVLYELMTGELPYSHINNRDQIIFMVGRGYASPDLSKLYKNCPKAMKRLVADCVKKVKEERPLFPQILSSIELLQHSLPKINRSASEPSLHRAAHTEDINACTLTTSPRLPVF

With `CN1CCN(Cc2ccc(C(=O)N[C@@H]3[C@H]4Oc5ccc(Oc6ccnc7c6CCC(=O)N7)cc5[C@@H]34)cc2C(F)(F)F)CC1` [Compound 1.3], the IC50 against wild type B-Raf (IC50 Braf-WT […] ATP, […] ATP) was 36 nM; on wild type B-Raf (setting [2]) it was 14 nM; on WT EGFR kinase domain, 0.7 nM; on EGFR L858R kinase domain, 0.079 nM; in experiment [1] it was 0.088 nM; at B-Raf (V600E), 7.1 nM. At C-Raf (Y340D/Y341D), this molecule had an IC50 of 1.9 nM.

Turning to `CCN1CCN(Cc2ccc(C(=O)N[C@@H]3[C@H]4Oc5ccc(Oc6ccnc7c6CCC(=O)N7)cc5[C@@H]34)cc2F)CC1` [Compound 1.4], the IC50 amounted to 31 nM against wild type B-Raf (IC50 Braf-WT […] ATP, […] ATP); 7.9 nM at wild type B-Raf (setting [2]); 1.4 nM against WT EGFR kinase domain; 0.46 nM against EGFR L858R kinase domain; 2.3 nM in experiment [1]; 8.1 nM at B-Raf (V600E). The same molecule returned an IC50 against C-Raf (Y340D/Y341D) of 1.5 nM.

With `CCN1CCN(Cc2cc(C(=O)N[C@@H]3[C@H]4Oc5ccc(Oc6ccnc7c6CCC(=O)N7)cc5[C@@H]34)cc(C(F)(F)F)c2)CC1` [Compound 1.5], the concentration for half-maximal inhibition (IC50) at wild type B-Raf (IC50 Braf-WT […] ATP, […] ATP) came out at 39 nM; on wild type B-Raf (setting [2]), 15 nM; at WT EGFR kinase domain, 2.3 nM; against EGFR L858R kinase domain, 1 nM; in experiment [1] it was 7.1 nM; on B-Raf (V600E), 12 nM. In addition, the IC50 against C-Raf (Y340D/Y341D) worked out at 2.1 nM.

Consider `O=C1CCc2c(Oc3ccc4c(c3)[C@H]3[C@H](NC(=O)c5ccc(CN6CCOCC6)c(C(F)(F)F)c5)[C@H]3O4)ccnc2N1` [Compound 1.7], for which the IC50 stood at 130 nM on wild type B-Raf (IC50 Braf-WT […] ATP, […] ATP); 36 nM at wild type B-Raf (setting [2]); 9.8 nM on WT EGFR kinase domain; 16 nM against EGFR L858R kinase domain; 54 nM in experiment [1]; 36 nM on B-Raf (V600E). The same molecule returned an IC50 against C-Raf (Y340D/Y341D) of 3.5 nM.

In the case of `O=C1CCc2c(Oc3ccc4c(c3)[C@H]3[C@H](NC(=O)c5ccc(CN6CCCCC6)c(C(F)(F)F)c5)[C@H]3O4)ccnc2N1` [Compound 1.8], the IC50 against wild type B-Raf (IC50 Braf-WT […] ATP, […] ATP) was found to be 380 nM; on wild type B-Raf (setting [2]), 96 nM; at WT EGFR kinase domain, 70 nM; against EGFR L858R kinase domain it was 100 nM; in experiment [1] it was 504 nM; at B-Raf (V600E), 41 nM. The same molecule had an IC50 at C-Raf (Y340D/Y341D) of 18 nM.

Turning to `O=C1CCc2c(Oc3ccc4c(c3)[C@H]3[C@H](NC(=O)c5ccc(CN6CCN7CCC[C@@H]7C6)c(C(F)(F)F)c5)[C@H]3O4)ccnc2N1` [Compound 1.12], the IC50 against wild type B-Raf (IC50 Braf-WT […] ATP, […] ATP) was 33 nM; on wild type B-Raf (setting [2]), 9.4 nM; at WT EGFR kinase domain, 0.67 nM; against EGFR L858R kinase domain it was 0.16 nM; in experiment [1] it was 0.21 nM; at B-Raf (V600E), 9 nM. Moreover, it took 1.3 nM to reach half-maximal inhibition at C-Raf (Y340D/Y341D) (IC50).

Consider `CN(C)Cc1ccc(C(=O)N[C@@H]2[C@H]3Oc4ccc(Oc5ccnc6c5CCC(=O)N6)cc4[C@@H]23)cc1C(F)(F)F` [Compound 1.24], for which the IC50 at wild type B-Raf (setting [2]) was found to be 34 nM; against WT EGFR kinase domain, 2.7 nM; on EGFR L858R kinase domain it was 1.2 nM; in experiment [1], 8.1 nM; on B-Raf (V600E), 14 nM; on C-Raf (Y340D/Y341D) it was 1.4 nM.

`CC(C)(N)c1cc(C(=O)N[C@@H]2[C@H]3Oc4ccc(Oc5ccnc6c5CCC(=O)N6)cc4[C@@H]23)cc(C(F)(F)F)c1` [Compound 1.25, 3-(2-aminopropan-2-yl)-N-((1S,1aS,6bS)-5-((7-oxo-5,6,7,8-tetrahydro-1,8-naphthyridin-4-yl)oxy)-1a,6b-dihydro-1H-cyclopropa[b]benzofuran-1-yl)-5-(trifluoromethyl)benzamide]: the half-maximal inhibitory concentration (IC50) was determined as 3.4 nM on wild type B-Raf (IC50 Braf-WT […] ATP, […] ATP); 1.4 nM at wild type B-Raf (setting [2]); 0.48 nM at WT EGFR kinase domain; 0.15 nM against EGFR L858R kinase domain; 1.2 nM in experiment [1]; 0.71 nM at B-Raf (V600E). On C-Raf (Y340D/Y341D), inhibition was half-maximal at 0.25 nM (IC50).

On to `NC1(c2cc(C(=O)N[C@@H]3[C@H]4Oc5ccc(Oc6ccnc7c6CCC(=O)N7)cc5[C@@H]34)cc(C(F)(F)F)c2)CC1` [Compound 1.26, 3-(1-aminocyclopropyl)-N-((1S,1aS,6bS)-5-((7-oxo-5,6,7,8-tetrahydro-1,8-naphthyridin-4-yl)oxy)-1a,6b-dihydro-1H-cyclopropa[b]benzofuran-1-yl)-5-(trifluoromethyl)benzamide], for which the IC50 is 5.7 nM on wild type B-Raf (setting [2]); 1.7 nM against WT EGFR kinase domain; 1.3 nM against EGFR L858R kinase domain; 9.4 nM in experiment [1]; 2.2 nM at B-Raf (V600E); 0.52 nM at C-Raf (Y340D/Y341D).

For the molecule `O=C1CCc2c(Oc3ccc4c(c3)[C@H]3[C@H](NC(=O)c5ccc(CN6CCNCC6)c(C(F)(F)F)c5)[C@H]3O4)ccnc2N1` [Compound 1.27, N-((1S,1aS,6bS)-5-((7-oxo-5,6,7,8-tetrahydro-1,8-naphthyridin-4-yl)oxy)-1a,6b-dihydro-1H-cyclopropa[b]benzofuran-1-yl)-4-(piperazin-1-ylmethyl)-3-(trifluoromethyl)benzamide], the IC50 stood at 120 nM against wild type B-Raf (IC50 Braf-WT […] ATP, […] ATP); 63 nM at wild type B-Raf (setting [2]); 1.3 nM at WT EGFR kinase domain; 0.31 nM at EGFR L858R kinase domain; 0.54 nM in experiment [1]; 27.2 nM on B-Raf (V600E). The same molecule had an IC50 against C-Raf (Y340D/Y341D) of 3 nM.

Regarding `C[C@H]1CN(Cc2ccc(C(=O)N[C@@H]3[C@H]4Oc5ccc(Oc6ccnc7c6CCC(=O)N7)cc5[C@@H]34)cc2C(F)(F)F)CCN1` [Compound 1.29, 4-(((S)-3-methylpiperazin-1-yl)methyl)-N-((1S,1aS,6bS)-5-((7-oxo-5,6,7,8-tetrahydro-1,8-naphthyridin-4-yl)oxy)-1a,6b-dihydro-1H-cyclopropa[b]benzofuran-1-yl)-3-(trifluoromethyl)benzamide], the IC50 at wild type B-Raf (setting [2]) worked out at 9.1 nM; against WT EGFR kinase domain it was 0.61 nM; on EGFR L858R kinase domain it was 0.14 nM; in experiment [1] it was 0.3 nM; on B-Raf (V600E), 6.2 nM; on C-Raf (Y340D/Y341D) it was 1.1 nM.

Take `CN(C)[C@@H]1CCCN(Cc2ccc(C(=O)N[C@@H]3[C@H]4Oc5ccc(Oc6ccnc7c6CCC(=O)N7)cc5[C@@H]34)cc2C(F)(F)F)C1` [Compound 1.31, 4-(((R)-3-(dimethylamino)piperidin-1-yl)methyl)-N-((1S,1aS,6bS)-5-((7-oxo-5,6,7,8-tetrahydro-1,8-naphthyridin-4-yl)oxy)-1a,6b-dihydro-1H-cyclopropa[b]benzofuran-1-yl)-3-(trifluoromethyl)benzamide]: the IC50 on wild type B-Raf (setting [2]) was found to be 10 nM; against WT EGFR kinase domain, 0.99 nM; on EGFR L858R kinase domain, 0.44 nM; in experiment [1], 1.9 nM; at B-Raf (V600E), 15 nM; at C-Raf (Y340D/Y341D) it was 0.78 nM.

For the molecule `CN(C)[C@H]1CCCN(Cc2ccc(C(=O)N[C@@H]3[C@H]4Oc5ccc(Oc6ccnc7c6CCC(=O)N7)cc5[C@@H]34)cc2C(F)(F)F)C1` [Compound 1.32], the IC50 on wild type B-Raf (setting [2]) is 21 nM; against WT EGFR kinase domain, 1.5 nM; at EGFR L858R kinase domain, 0.47 nM; in experiment [1], 1.3 nM; at B-Raf (V600E) it was 13 nM; at C-Raf (Y340D/Y341D), 2.5 nM.

For the molecule `CCN1CCN(Cc2ccc(C(=O)N[C@H]3[C@@H]4Oc5ccc(Oc6ccnc7c6CCC(=O)N7)cc5[C@H]34)cc2C(F)(F)F)CC1` [Compound 1.33, 4-((4-ethylpiperazin-1-yl)methyl)-N-((1R,1aR,6bR)-5-((7-oxo-5,6,7,8-tetrahydro-1,8-naphthyridin-4-yl)oxy)-1a,6b-dihydro-1H-cyclopropa [b]benzofuran-1-yl)-3-(trifluoromethyl)benzamide], the IC50 at wild type B-Raf (setting [2]) stood at 35 nM; at WT EGFR kinase domain, 774 nM; against EGFR L858R kinase domain, 146 nM; in experiment [1], 293 nM; on B-Raf (V600E) it was 16 nM; against C-Raf (Y340D/Y341D), 0.47 nM.
